Measured values from article PMC11995216, “End-to-End Backbone Cyclization Enhances Passive Permeability of bRo5 Oligomeric Depsipeptides with Nonlinear Size Dependence” (ACS Medicinal Chemistry Letters, 2025).
Values joined by “and” are separate entries in the source; they are usually repeats but may differ in a detail not shown here. Equal entries are not always repeated. Where two headings read alike, the source gives them in different places. Each block holds one compound with its values, some of them ahead of it. Starred links: 1 amine or outer side, 2 acyl side, 3 side chain; linkers in the order of their positions; H or OH if unused. Non-standard residues stand in square brackets, D forms with d. Residues, ends and D or L forms follow the SMILES beside them. *: point of attachment. X1 = CCCCC[C@H](O[*:1])C(=O)[*:2]; Ahp(2) = CCCCC[C@H](N)C(=O)O; dNMeA = CN[C@H](C)C(=O)O; OBn = c1ccc(CO*)cc1

Columns and labels:
[1] = UV detection
[2] = initial concentration 500 uM, UV detection
[3] = calculated using Supplement Equation 1, UV detection
[4] = initial concentration 500 uM, UV detection; remark: listed apart in the source
[5] = in vitro; settings: PAMPA, Papp
[6] = test system: PAMPA
[7] = test system: PAMPA; settings: initial concentration 500 uM
[8] = PAMPA, 500 uM
[9] = test system: PAMPA; settings: UV detection
[10] = test system: PAMPA; settings: initial concentration 500 uM, UV detection
[11] = test system: PAMPA; settings: calculated using Supplement Equation 1, UV detection

% recovery ([1]; Well 1 / %R, Well 1): 91% and 92%
% recovery ([1]; Well 2 / %R, Well 2): 87% and 92%
% recovery ([1]; Well 3 / %R, Well 3): 90%
% recovery ([1]; Well 4 / %R, Well 4): 88% and 86%
% recovery ([1]; Well 5 / %R, Well 5): 87% and 88%
%T ([3]; Well 1 / %T, Well 1): 0.52% and 0.53%
%T ([3]; Well 2 / %T, Well 2): 0.54%
%T ([3]; Well 3 / %T, Well 3): 0.53% and 0.5%
%T ([3]; Well 4 / %T, Well 4): 0.5% and 0.52%
%T ([3]; Well 5 / %T, Well 5): 0.53% and 0.52%
Compound: CCCCC[C@H](NC(=O)[C@@H](C)N(C)C(=O)[C@H](CCCCC)NC(=O)[C@@H](C)N(C)C(=O)[C@H](CCCCC)NC(=O)[C@@H](C)N(C)C(=O)[C@H](CCCCC)OC(=O)[C@@H](C)NC)C(=O)OCc1ccccc1 (H-[dNMeA][X1][dNMeA][Ahp(2)][dNMeA][Ahp(2)][dNMeA][Ahp(2)]-OBn)
donor concentration after incubation ([2]; Well 1 / [donor], Well 1): 396 µM and 397 µM
donor concentration after incubation ([2]; Well 2 / [donor], Well 2): 375 µM and 395 µM
donor concentration after incubation ([2]; Well 3 / [donor], Well 3): 387 µM and 374 µM
donor concentration after incubation ([2]; Well 4 / [donor], Well 4): 382 µM and 368 µM
donor concentration after incubation ([2]; Well 5 / [donor], Well 5): 376 µM and 377 µM
acceptor concentration after incubation ([4]; Well 1 / [acc], Well 1): 56 µM and 61.7 µM
acceptor concentration after incubation ([4]; Well 2 / [acc], Well 2): 58.6 µM and 63.1 µM
acceptor concentration after incubation ([4]; Well 3 / [acc], Well 3): 59.5 µM and 60.4 µM
acceptor concentration after incubation ([4]; Well 4 / [acc], Well 4): 58.3 µM and 60.3 µM
acceptor concentration after incubation ([4]; Well 5 / [acc], Well 5): 60.6 µM and 61.4 µM

% recovery ([1]; Well 1 / %R, Well 1): 95%
% recovery ([1]; Well 2 / %R, Well 2): 91% and 89%
% recovery ([1]; Well 3 / %R, Well 3): 91%
% recovery ([1]; Well 4 / %R, Well 4): 98% and 90%
% recovery ([1]; Well 5 / %R, Well 5): 89%
%T ([3]; Well 1 / %T, Well 1): 0.34% and 0.4%
%T ([3]; Well 2 / %T, Well 2): 0.4%
%T ([3]; Well 3 / %T, Well 3): 0.36% and 0.39%
%T ([3]; Well 4 / %T, Well 4): 0.36% and 0.38%
%T ([3]; Well 5 / %T, Well 5): 0.38% and 0.4%
Papp at 500 uM [5]: 27.9 ± 1.9 nm/s
Papp ([6]; Papp (x 10^-6 cm/s) / [row 1], UV detection): 27 nm/s
Papp ([6]; Papp (x 10^-6 cm/s) / [row 2], UV detection): 28.6 nm/s
Papp ([6]; Papp (x 10^-6 cm/s) / [row 3], UV detection): 32 nm/s
Papp ([6]; Papp (x 10^-6 cm/s) / [row 4], UV detection): 29.1 nm/s
Papp ([6]; Papp (x 10^-6 cm/s) / [row 5], UV detection): 25.4 nm/s
Papp ([6]; Papp (x 10^-6 cm/s) / [row 6], UV detection): 27.8 nm/s
Papp ([6]; Papp (x 10^-6 cm/s) / [row 7], UV detection): 28 nm/s
Papp ([6]; Papp (x 10^-6 cm/s) / [row 8], UV detection): 25.5 nm/s
Papp ([6]; Papp (x 10^-6 cm/s) / [row 9], UV detection): 29 nm/s
Papp ([6]; Papp (x 10^-6 cm/s) / [row 10], UV detection): 26.8 nm/s
LogPapp [8]: -5.55 ± 0.03
Δ % diffusion [8]: ↑17%
Compound: CCCCC[C@H](NC(=O)[C@@H](C)N(C)C(=O)OC(C)(C)C)C(=O)N(C)[C@H](C)C(=O)N[C@H](CCCCC)C(=O)N(C)[C@H](C)C(=O)O[C@@H](CCCCC)C(=O)N(C)[C@H](C)C(=O)O[C@@H](CCCCC)C(=O)OCc1ccccc1 (stereo in doubt) [Compound L2.2]
donor concentration after incubation ([2]; Well 1 / [donor], Well 1): 406 µM and 404 µM
donor concentration after incubation ([2]; Well 2 / [donor], Well 2): 384 µM and 380 µM
donor concentration after incubation ([2]; Well 3 / [donor], Well 3): 381 µM and 392 µM
donor concentration after incubation ([2]; Well 4 / [donor], Well 4): 416 µM and 380 µM
donor concentration after incubation ([2]; Well 5 / [donor], Well 5): 398 µM and 382 µM
acceptor concentration after incubation ([4]; Well 1 / [acc], Well 1): 70.2 µM
Acceptor Concentration ([7]; Acceptor Concentration (uM) / [row 1], UV detection): 68.3 µM
Acceptor Concentration ([7]; Acceptor Concentration (uM) / [row 2], UV detection): 68.9 µM
Acceptor Concentration ([7]; Acceptor Concentration (uM) / [row 3], UV detection): 76.7 µM
Acceptor Concentration ([7]; Acceptor Concentration (uM) / [row 4], UV detection): 75.8 µM
Acceptor Concentration ([7]; Acceptor Concentration (uM) / [row 5], UV detection): 62.9 µM
Acceptor Concentration ([7]; Acceptor Concentration (uM) / [row 6], UV detection): 70.1 µM
Acceptor Concentration ([7]; Acceptor Concentration (uM) / [row 7], UV detection): 66.3 µM
Acceptor Concentration ([7]; Acceptor Concentration (uM) / [row 8], UV detection): 62.1 µM
Acceptor Concentration ([7]; Acceptor Concentration (uM) / [row 9], UV detection): 69 µM
Acceptor Concentration ([7]; Acceptor Concentration (uM) / [row 10], UV detection): 63.9 µM

% recovery ([9]; Well 1 / %R, Well 1): 90%
% recovery ([9]; Well 2 / %R, Well 2): 90% and 92%
% recovery ([9]; Well 3 / %R, Well 3): 93% and 90%
% recovery ([9]; Well 4 / %R, Well 4): 92%
% recovery ([9]; Well 5 / %R, Well 5): 88% and 89%
%T ([11]; Well 1 / %T, Well 1): 0.56% and 0.55%
%T ([11]; Well 2 / %T, Well 2): 0.58% and 0.6%
%T ([11]; Well 3 / %T, Well 3): 0.6% and 0.62%
%T ([11]; Well 4 / %T, Well 4): 0.6% and 0.61%
%T ([11]; Well 5 / %T, Well 5): 0.59% and 0.57%
Papp at 500 uM [5]: 50.5 ± 3.3 nm/s
Papp at 500 uM ([5]; Ave): 47.8 nm/s
Papp ([6]; Papp (x 10^-6 cm/s) – ELSD Detection / [row 1], ELSD Detection): 43.6 nm/s
Papp ([6]; Papp (x 10^-6 cm/s) – ELSD Detection / [row 2], ELSD Detection): 44.8 nm/s
Papp ([6]; Papp (x 10^-6 cm/s) – ELSD Detection / [row 3], ELSD Detection): 47.2 nm/s
Papp ([6]; Papp (x 10^-6 cm/s) – ELSD Detection / [row 4], ELSD Detection): 48.3 nm/s
Papp ([6]; Papp (x 10^-6 cm/s) – ELSD Detection / [row 5], ELSD Detection): 43.4 nm/s
Papp ([6]; Papp (x 10^-6 cm/s) – ELSD Detection / [row 6], ELSD Detection): 48.6 nm/s
Papp ([6]; Papp (x 10^-6 cm/s) – ELSD Detection / [row 7], ELSD Detection): 48.8 nm/s
Papp ([6]; Papp (x 10^-6 cm/s) – ELSD Detection / [row 8], ELSD Detection): 52.3 nm/s
Papp ([6]; Papp (x 10^-6 cm/s) – ELSD Detection / [row 9], ELSD Detection): 52.3 nm/s
Papp ([6]; Papp (x 10^-6 cm/s) – ELSD Detection / [row 10], ELSD Detection): 48.9 nm/s
Papp ([6]; Papp (x 10^-6 cm/s) – UV Detection / [row 1], UV Detection): 46.3 nm/s
Papp ([6]; Papp (x 10^-6 cm/s) – UV Detection / [row 2], UV Detection): 49.3 nm/s
Papp ([6]; Papp (x 10^-6 cm/s) – UV Detection / [row 3], UV Detection): 51.6 nm/s
Papp ([6]; Papp (x 10^-6 cm/s) – UV Detection / [row 4], UV Detection): 52 nm/s
Papp ([6]; Papp (x 10^-6 cm/s) – UV Detection / [row 6], UV Detection): 44.9 nm/s
Papp ([6]; Papp (x 10^-6 cm/s) – UV Detection / [row 7], UV Detection): 51.8 nm/s
Papp ([6]; Papp (x 10^-6 cm/s) – UV Detection / [row 8], UV Detection): 55.5 nm/s
Papp ([6]; Papp (x 10^-6 cm/s) – UV Detection / [row 9], UV Detection): 54.4 nm/s
Papp ([6]; Papp (x 10^-6 cm/s) – UV Detection / [row 10], UV Detection): 48.7 nm/s
LogPapp [8]: -5.30 ± 0.03
Δ % diffusion [8]: ↑5%
Compound: CCCCC[C@@H]1OC(=O)[C@@H](C)N(C)C(=O)[C@H](CCCCC)OC(=O)[C@@H](C)N(C)C1=O [Compound C1.2]
donor concentration after incubation ([10]; Well 1 / [donor], Well 1): 356 µM
donor concentration after incubation ([10]; Well 2 / [donor], Well 2): 347 µM and 350 µM
donor concentration after incubation ([10]; Well 3 / [donor], Well 3): 356 µM and 338 µM
donor concentration after incubation ([10]; Well 4 / [donor], Well 4): 346 µM
donor concentration after incubation ([10]; Well 5 / [donor], Well 5): 339 µM and 346 µM
Acceptor Concentration ([7]; Acceptor Concentration (uM) – ELSD Detection / [row 1], ELSD Detection): 94.8 µM
Acceptor Concentration ([7]; Acceptor Concentration (uM) – ELSD Detection / [row 2], ELSD Detection): 98.9 µM
Acceptor Concentration ([7]; Acceptor Concentration (uM) – ELSD Detection / [row 3], ELSD Detection): 102 µM
Acceptor Concentration ([7]; Acceptor Concentration (uM) – ELSD Detection / [row 4], ELSD Detection): 107 µM
Acceptor Concentration ([7]; Acceptor Concentration (uM) – ELSD Detection / [row 5], ELSD Detection): 98.1 µM
Acceptor Concentration ([7]; Acceptor Concentration (uM) – ELSD Detection / [row 6], ELSD Detection): 113 µM
Acceptor Concentration ([7]; Acceptor Concentration (uM) – ELSD Detection / [row 7], ELSD Detection): 118 µM
Acceptor Concentration ([7]; Acceptor Concentration (uM) – ELSD Detection / [row 8], ELSD Detection): 122 µM
Acceptor Concentration ([7]; Acceptor Concentration (uM) – ELSD Detection / [row 9], ELSD Detection): 113 µM
Acceptor Concentration ([7]; Acceptor Concentration (uM) – ELSD Detection / [row 10], ELSD Detection): 109 µM
Acceptor Concentration ([7]; Acceptor Concentration (uM) – UV Detection / [row 1], UV Detection): 98.5 µM
Acceptor Concentration ([7]; Acceptor Concentration (uM) – UV Detection / [row 2], UV Detection): 103 µM
Acceptor Concentration ([7]; Acceptor Concentration (uM) – UV Detection / [row 3], UV Detection): 111 µM
Acceptor Concentration ([7]; Acceptor Concentration (uM) – UV Detection / [row 4], UV Detection): 108 µM
Acceptor Concentration ([7]; Acceptor Concentration (uM) – UV Detection / [row 5], UV Detection): 103 µM
Acceptor Concentration ([7]; Acceptor Concentration (uM) – UV Detection / [row 6], UV Detection): 95 µM
Acceptor Concentration ([7]; Acceptor Concentration (uM) – UV Detection / [row 7], UV Detection): 109 µM
Acceptor Concentration ([7]; Acceptor Concentration (uM) – UV Detection / [row 8], UV Detection): 114 µM
Acceptor Concentration ([7]; Acceptor Concentration (uM) – UV Detection / [row 9], UV Detection): 114 µM
